In patent publication US6794415B2, “Biphenyl compounds and their use as oestrogenic agents” (Aventis Pharma S.A., priority 1996, dated 2004):

Experiments:
[1] = target: T1, Oestrogen Receptor of a Rat's Uterus (ROR) (Rattus norvegicus, UniProt P06211); test: Oestrogen receptor of a rat's uterus (ROR): displacement of tritiated oestradiol, relative bond affinity; assay type: binding; settings: oestradiol = 100; RBA=100(CH)/(CX); rat uterus cytosol, incubation 0° C. for 24 hours
T1 construct: the uteri are removed, then homogenized at 0° C; from tissue; host or cells: rat uterus cytosol (ultracentrifugation supernatant of homogenate)
T1 sequence (P06211 1-600): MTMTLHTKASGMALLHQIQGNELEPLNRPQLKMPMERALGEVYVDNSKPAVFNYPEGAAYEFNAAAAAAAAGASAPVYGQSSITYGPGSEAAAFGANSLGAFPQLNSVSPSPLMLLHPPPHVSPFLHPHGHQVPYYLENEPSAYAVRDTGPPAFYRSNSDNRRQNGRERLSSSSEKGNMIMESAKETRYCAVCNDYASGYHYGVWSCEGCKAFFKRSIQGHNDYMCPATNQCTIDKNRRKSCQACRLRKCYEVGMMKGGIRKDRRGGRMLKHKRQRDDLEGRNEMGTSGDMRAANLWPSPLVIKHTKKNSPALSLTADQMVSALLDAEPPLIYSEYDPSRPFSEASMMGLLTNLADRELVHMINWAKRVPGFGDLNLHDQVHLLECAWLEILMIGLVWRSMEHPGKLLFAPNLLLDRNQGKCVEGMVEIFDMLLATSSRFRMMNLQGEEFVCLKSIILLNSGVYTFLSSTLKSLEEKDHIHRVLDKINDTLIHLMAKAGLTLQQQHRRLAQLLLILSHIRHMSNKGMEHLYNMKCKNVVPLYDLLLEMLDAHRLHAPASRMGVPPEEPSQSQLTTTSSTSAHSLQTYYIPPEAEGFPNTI
Experimental: Oestrogen Receptor of a Rat's Uterus (ROR):
Female rats of 280-300 g and castrated 24 hours beforehand, are sacrificed, the uteri are removed, then homogenized at 0° C., using a teflon-glass Potter in a buffered solution BS (10 mM Tris, 0.25 M saccharose, HCl pH 7.4) (1 g of tissue per 10 ml of BS). The homogenate is then ultracentrifuged (209,000 g×30mn.) at 0° C. The supernatant aliquots thus obtained are incubated at 0° C. for 24 hours, with a constant concentration (2.5 10^−9M) of tritiated oestrodiol in the presence of increasing concentrations either of unlabelled oestradiol (0-1000×10^−9M), or of unlabelled product to be tested […]. The concentration of bound tritiated oestradiol (B) is then measured in each incubate by the carbon-dextran adsorption technique.
(§1) Calculation of the Relative Bond Affinity (RBA):
(§2) The following two curves are drawn: the percentage of bound tritiated hormone 100×B/B0 as a function of the logarithm of the concentration of unlabelled reference hormone or as a function of the concentration of unlabelled test product.
(§3) The straight line of the equation
(§4) B0=concentration of bound tritiated hormone in the absence of any unlabelled product.
(§5) B=concentration of bound tritiated hormone in the presence of a concentration X of unlabelled product.
(§6) B min=concentration of bound tritiated hormone for an incubation of this tritiated hormone at a concentration (T) in the presence of a large excess of unlabelled reference hormone (1000×10^−9M) for the human receptor.
(§7) The intersections of the straight line I50 and the curves allow the evaluation of the concentrations of unlabelled reference hormone (CH) and of the unlabelled test product (CX) which inhibit by 50% the binding of the tritiated hormone on the receptor.
(§8) The relative bond affinity (RBA) of the test product is calculated by the equation: RBA=100(CH)/(CX).

[2] = target: T2, recombinant human oestrogen receptor (HOR) (Homo sapiens, UniProt P03372); test: Human oestrogen receptor (HOR): displacement of tritiated oestradiol, relative bond affinity; assay type: binding; settings: oestradiol = 100, RBA=100(CH)/(CX); for HOR long t relative bond affinity (RBA): incubation 0° C. for 24 hours (long t); for HOR short t relative bond affinity (RBA): incubation 0° C. for 3 hours (short t)
T2 construct: made in house; host or cells: SF9 insect cells (ATCC CRL1711), baculovirus
T2 sequence (P03372 1-595): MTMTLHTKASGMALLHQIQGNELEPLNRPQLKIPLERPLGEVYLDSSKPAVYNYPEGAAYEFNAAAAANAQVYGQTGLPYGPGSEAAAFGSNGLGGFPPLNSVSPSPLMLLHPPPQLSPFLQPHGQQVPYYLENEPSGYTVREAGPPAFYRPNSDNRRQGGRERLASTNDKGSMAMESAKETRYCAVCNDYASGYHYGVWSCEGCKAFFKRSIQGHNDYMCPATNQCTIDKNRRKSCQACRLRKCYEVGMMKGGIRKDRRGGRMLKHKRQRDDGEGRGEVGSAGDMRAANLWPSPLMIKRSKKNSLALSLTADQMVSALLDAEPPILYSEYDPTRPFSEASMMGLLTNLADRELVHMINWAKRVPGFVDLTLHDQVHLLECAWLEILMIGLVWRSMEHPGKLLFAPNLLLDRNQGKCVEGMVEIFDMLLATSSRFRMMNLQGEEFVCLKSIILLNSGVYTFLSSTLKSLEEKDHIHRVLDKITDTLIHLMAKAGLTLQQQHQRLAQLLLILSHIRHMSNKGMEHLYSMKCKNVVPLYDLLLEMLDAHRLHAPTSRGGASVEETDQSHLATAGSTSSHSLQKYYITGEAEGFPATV
Excerpt: Human Oestrogen Receptor (HOR)
A cytosolic extract of SF9 cells containing the recombinant human oestrogen receptor is obtained by overexpression in an insect-Baculovirus cell system, according to the general methodology described by N. R. WEBB et al. (Journal of Methods in Cell and Molecular Biology, (1990) Vol.2 No. 4, 173-188) and the application of which is described for the expression of human hormonal receptors, for example the human glucocorticoid receptor (G. SRINIVASAN et al. Molecular Endocrinology (1990) vol 4 No. 2 209-216).
The BaculoGold Transfection Kit (PharMingen, reference 21000K) is used to generate the recombinant baculovirus containing the cDNA fragment described in the expression vector HEGO by L. TORA et al. (The EMBO Journal (1989) vol. 8 No. 7 1981-1986), containing the coding region for the wild-type human oestrogen receptor with a glycine in position 400.
The recombinant virus thus obtained is used to express the oestrogen receptor in the SF9 insect cells (ATCC CRL1711), according to the known methodology mentioned previously.
2*10^7 SF9 cells are cultured in a 175 cm^2 “Falcon” flask in the TNM-FH “SIGMA” medium supplemented by 10% of foetal calf serum (FCS) and by 50 microgram/ml of gentamycin. After infection then incubation at 27° C. for 40 to 42 hours, the cells are lysed in 1 ml of lysis buffer (Tris 20 mM-HCl pH8, EDTA 0.5 mM, DTT 2 mM, Glycerol 20%, KCl 400 mM) with a freezing-thawing cycle which is repeated another two times. The supernatant, containing the recombinant human oestrogen receptor is kept in liquid nitrogen by 0.5 ml doses.
The supernatant is incubated at 0° C. for 24 hours (long t) or 3 hours (short t) with a constant concentration (T) of tritiated oestradiol in the presence of increasing concentrations of either unlabelled oestradiol (0-1000×10^−9M), or of unlabelled product to be tested (0-25000×10^−9M). The concentration of bound tritiated oestradiol (B) is then measured in each incubate by the technique of adsorption with carbon dextran.
as §1, §2, §3, §4, §5, §6, §7, §8

Row | ROR relative bond affinity (RBA) [1] | HOR long t relative bond affinity (RBA) [2] | HOR short t relative bond affinity (RBA) [2] | Structure (SMILES)
1 | 4 | 22 | – | CC(C)c1cc(CO)cc(Cl)c1-c1ccc(O)cc1 [Example 4, 2-chloro-4′-hydroxy-6-(1-methylethyl)-(1,1′-biphenyl)-4-methanol]
2 | 3 | 35 | 104 | OCc1cc(Cl)c(-c2ccc(O)cc2)c(Cl)c1 [Example 24, 2,6-dichloro-4′-hydroxy-(1,1′-biphenyl)-4-methanol]
3 | 12.5 | 74 | 425 | OCc1cc(Br)c(-c2ccc(O)cc2)c(Br)c1 [Example 2, 2,6-dibromo-4′-hydroxy-(1,1′-biphenyl)-4-methanol]
4 | – | 5 | 12 | O=Cc1cc(Cl)c(-c2ccc(O)cc2)c(Cl)c1 [Example 25, 2,6-dichloro-4′-hydroxy-(1,1′-biphenyl)-4-carboxaldehyde]
5 | – | 5.5 | – | O=Cc1cc(Br)c(-c2ccc(O)cc2)c(Br)c1 [Example 1, 2,6-dibromo-4′-hydroxy-(1,1′-biphenyl)-4-carboxaldehyde]
6 | 9.5 | 50 | – | OCc1cc(Cl)c(-c2ccc(O)cc2)c(C(F)(F)F)c1 [Example 7, 2-chloro-4′-hydroxy-6-(trifluoromethyl)-(1,1′-biphenyl)-4-methanol]
7 | – | 4.5 | – | CCc1cc(C(C)C)c(-c2ccc(O)cc2)cc1C [Example 6, 4′-ethyl-5′-methyl-2′-(1-methylethyl)-(1,1′-biphenyl)-4-ol]
8 | 0.8 | 7.5 | 24 | Cc1c(C(C)O)cc(C(C)C)c(-c2ccc(O)cc2)c1Cl (stereo not drawn) [Example 13, 1-[2-chloro-4′-hydroxy-3-methyl-6-(1-methylethyl)-(1,1′-biphenyl-4-yl)]-ethanol]
9 | 8 | 0.07 | – | OCc1cc(Cl)c(-c2ccc(O)c(Cc3ccccc3)c2)c(Cl)c1 [Example 36, 2,6-dichloro-4′-hydroxy-5′-(phenylmethyl)-(1,1′-biphenyl)-4-methanol]
10 | 2 | 8 | 33 | OCc1ccc(-c2ccc(O)cc2)c(C(F)(F)F)c1 [Example 28, 4′-hydroxy-2-trifluoromethyl-(1,1′-biphenyl)-4-methanol]
11 | 0.15 | 0.6 | – | Cc1ccc(-c2ccc(O)cc2)c(C(F)(F)F)c1 [Example 29, 4′-methyl-2′-trifluoromethyl-(1,1′-biphenyl)-4-ol]
12 | 5 | 34 | – | O=[N+]([O-])c1cc(CO)cc(Br)c1-c1ccc(O)cc1 [Example 18, 2-bromo-4′-hydroxy-6-nitro-(1,1′-biphenyl)-4-methanol]

Row | Structure (SMILES) | ROR relative bond affinity (RBA) [1] | HOR long t relative bond affinity (RBA) [2] | HOR short t relative bond affinity (RBA) [2]
13 | OCc1c(Cl)c(Cl)c(-c2ccc(O)cc2)c(Cl)c1Cl [Example 26, 4′-hydroxy-2.3,5,6-tetrachloro-(1,1′-biphenyl)-4-methanol] | – | 5.5 | –
14 | O=[N+]([O-])c1cc(CO)cc([N+](=O)[O-])c1-c1ccc(O)cc1 [Example 30, 2,6-dinitro-4′-hydroxy-(1,1′-biphenyl)-4-methanol] | 2 | 5 | 24
